Laboratory results reported in US20100144733A1, “Compounds, compositions and methods comprising heteroaromatic derivatives” (Institute for OneWorld Health, priority 2008, published 2010).

Assays:
[1] = molecular target: T1, CHO-CFTR cell line (Homo sapiens, UniProt P13569); test: CHO-CFTR assay (FLIPR assay, same conditions as the T84 assay); format: cell-based; conditions: imidazole and triazole-containing compounds
T1 construct: expressed in transfected cells; host or cells: CHO (CHO-CFTR cell line)
T1 sequence (P13569 whole entry): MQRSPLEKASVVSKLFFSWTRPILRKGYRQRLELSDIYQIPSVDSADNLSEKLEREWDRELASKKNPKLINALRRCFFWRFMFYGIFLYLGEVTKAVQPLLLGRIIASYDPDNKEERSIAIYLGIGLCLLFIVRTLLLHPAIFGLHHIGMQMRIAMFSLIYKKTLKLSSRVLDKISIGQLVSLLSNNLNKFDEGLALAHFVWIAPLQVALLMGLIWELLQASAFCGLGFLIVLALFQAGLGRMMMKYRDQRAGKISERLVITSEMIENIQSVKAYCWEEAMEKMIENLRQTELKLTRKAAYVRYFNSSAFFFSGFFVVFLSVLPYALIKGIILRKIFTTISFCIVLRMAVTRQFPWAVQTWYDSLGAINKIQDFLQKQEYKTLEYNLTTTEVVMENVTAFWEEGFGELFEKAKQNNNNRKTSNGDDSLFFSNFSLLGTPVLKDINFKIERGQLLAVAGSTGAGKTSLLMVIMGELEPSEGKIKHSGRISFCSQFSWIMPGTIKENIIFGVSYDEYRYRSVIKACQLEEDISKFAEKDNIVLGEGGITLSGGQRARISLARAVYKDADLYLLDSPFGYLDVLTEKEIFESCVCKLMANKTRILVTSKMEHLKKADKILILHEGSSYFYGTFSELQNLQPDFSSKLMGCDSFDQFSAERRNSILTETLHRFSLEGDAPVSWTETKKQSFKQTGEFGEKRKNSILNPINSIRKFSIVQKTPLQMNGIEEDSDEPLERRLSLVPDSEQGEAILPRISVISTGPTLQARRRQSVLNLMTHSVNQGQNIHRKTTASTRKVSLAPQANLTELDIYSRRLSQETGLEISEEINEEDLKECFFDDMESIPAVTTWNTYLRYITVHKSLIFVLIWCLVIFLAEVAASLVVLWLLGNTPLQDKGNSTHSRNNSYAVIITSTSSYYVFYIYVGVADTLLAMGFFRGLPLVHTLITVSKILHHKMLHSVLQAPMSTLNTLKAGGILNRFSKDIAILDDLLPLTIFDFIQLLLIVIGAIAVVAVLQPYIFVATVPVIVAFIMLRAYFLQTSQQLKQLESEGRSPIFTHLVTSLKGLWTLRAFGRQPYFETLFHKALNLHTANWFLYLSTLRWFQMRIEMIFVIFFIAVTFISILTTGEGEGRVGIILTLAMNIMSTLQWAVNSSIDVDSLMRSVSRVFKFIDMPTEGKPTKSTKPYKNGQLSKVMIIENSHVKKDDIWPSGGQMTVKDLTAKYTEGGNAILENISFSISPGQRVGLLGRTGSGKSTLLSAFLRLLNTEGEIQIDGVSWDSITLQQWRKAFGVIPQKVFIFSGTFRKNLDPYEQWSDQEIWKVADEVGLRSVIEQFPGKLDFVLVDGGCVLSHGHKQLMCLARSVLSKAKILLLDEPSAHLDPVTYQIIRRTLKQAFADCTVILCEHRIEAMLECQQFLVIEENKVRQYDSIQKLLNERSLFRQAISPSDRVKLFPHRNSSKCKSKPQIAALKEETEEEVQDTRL

[2] = molecular target: T2, CFTR (Homo sapiens, UniProt P13569); test: T84 assay (FLIPR membrane potential dye, forskolin/IBMX-stimulated CFTR channel activity); format: cell-based; conditions: imidazole and triazole-containing compounds (Tables 13, 14, 14′), read-out: IC50 (μM) (T84 assay)
T2 construct: endogenous in cells; host or cells: T84 human colonic cells (ECACC)
T2 sequence (P13569 whole entry): as above
Procedure, shortened: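 Fluorescence from a membrane potential dye in T84 monolayers (HBSS with 10 mM Hepes) is followed each second for 150 s. Cells are exposed to test compound during the 45 min dye loading, then challenged with forskolin (10 μM) and IBMX (100 μM) to open CFTR. Inhibitors suppress the depolarization-driven fluorescence increase.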

Question: With `O=C(NCc1ccc(Oc2ccc(OCc3ccccc3)c(Cl)c2)cc1)c1ncn(-c2cc(Cl)c(O)c(Cl)c2)n1` [72i, N-(4-(4-(benzyloxy)-3-chlorophenoxy)benzyl)-1-(3,5-dichloro-4-hydroxyphenyl)-1H-1,2,4-triazole-3-carboxamide] as the molecule, how does the IC50 [1] read?
Answer: The IC50 was 12.3 µM.

Question: What about the IC50 [2] of the same molecule?
Answer: The IC50 was 7.6 µM.

Question: What does the source list for `O=C(NCc1ccc(Oc2cc(Cl)c(OCc3ccccc3)c(Cl)c2)cc1)c1ncn(-c2cc(Cl)c(O)c(Cl)c2)n1` [73i]?
Answer: IC50 [1]: 17 µM; IC50 [2]: 30.7 µM

Question: With `O=C(c1ncn(-c2cc(Cl)c(O)c(Cl)c2)n1)N(Cc1ccccc1)Cc1cccnc1` [75i, N-benzyl-1-(3,5-dichloro-4-hydroxyphenyl)-N-(pyridin-3-ylmethyl)-1H-1,2,4-triazole-3-carboxamide] as the molecule, how does the IC50 [1] read?
Answer: The IC50 was 40.1 µM.

Question: What about the IC50 [2] of the same molecule?
Answer: Its IC50 is 15.6 µM.

Question: Which results are given for `O=C(NCc1ccc(Oc2ccc(CO)cc2)cc1)c1ncn(-c2cc(Cl)c(O)c(Cl)c2)n1` [76i, 1-(3,5-dichloro-4-hydroxyphenyl)-N-(4-(4-(hydroxymethyl)phenoxy)benzyl)-1H-1,2,4-triazole-3-carboxamide]?
Answer: IC50 [1]: 12.2 µM; IC50 [2]: 11.3 µM

Question: Which IC50 [1] does the source give for `CC(C)(C)CCN(Cc1cccnc1)C(=O)c1ncn(-c2cc(Cl)c(O)c(Cl)c2)n1` [78i, 1-(3,5-dichloro-4-hydroxyphenyl)-N-(3,3-dimethylbutyl)-N-(pyridin-3-ylmethyl)-1H-1,2,4-triazole-3-carboxamide] here?
Answer: Its IC50 is 13.7 µM.

Question: And the IC50 [2]?
Answer: Its IC50 is 11.4 µM.

Question: With `O=C(c1ncn(-c2cc(Cl)c(O)c(Cl)c2)n1)N(Cc1ccccc1)Cc1ccc(Oc2ccccc2)cc1` [80i, N-benzyl-1-(3,5-dichloro-4-hydroxyphenyl)-N-(4-phenoxybenzyl)-1H-1,2,4-triazole-3-carboxamide] as the molecule, how does the IC50 [1] read?
Answer: Its IC50 is 13.3 µM.

Question: And the IC50 [2]?
Answer: Its IC50 is 4.4 µM.

Question: What does the source list for `CC(C)c1ccc(CN(Cc2ccccc2)C(=O)c2ncn(-c3cc(Cl)c(O)c(Cl)c3)n2)cc1` [81i, N-benzyl-1-(3,5-dichloro-4-hydroxyphenyl)-N-(4-isopropylbenzyl)-1H-1,2,4-triazole-3-carboxamide]?
Answer: IC50 [1]: 16.5 µM; IC50 [2]: 1.26 µM

Question: Which results are given for `CC(C)(C)c1ccc(CN(Cc2ccccc2)C(=O)c2ncn(-c3cc(Cl)c(O)c(Cl)c3)n2)cc1` [82i, N-benzyl-N-(4-tert-butylbenzyl)-1-(3,5-dichloro-4-hydroxyphenyl)-1H-1,2,4-triazole-3-carboxamide]?
Answer: IC50 [1]: 19.7 µM; IC50 [2]: 1.6 µM

Question: With `O=C(c1ncn(-c2cc(Cl)c(O)c(Cl)c2)n1)N(Cc1ccccc1)Cc1ccc(Cl)c(Cl)c1` [83i, N-benzyl-1-(3,5-dichloro-4-hydroxyphenyl)-N-(3,4-dichlorobenzyl)-1H-1,2,4-triazole-3-carboxamide] as the molecule, how does the IC50 [1] read?
Answer: Its IC50 is 14.3 µM.

Question: What about the IC50 [2] of the same molecule?
Answer: The IC50 was 3.22 µM.

Question: For `CCN(Cc1ccc(Oc2ccccc2)cc1)C(=O)c1ncn(-c2cc(Cl)c(O)c(Cl)c2)n1` [86i, 1-(3,5-dichloro-4-hydroxyphenyl)-N-ethyl-N-(4-phenoxybenzyl)-1H-1,2,4-triazole-3-carboxamide], which IC50 [1] is on record?
Answer: Its IC50 is 28.9 µM.

Question: And the IC50 [2]?
Answer: Its IC50 is 1.81 µM.

Question: How did the IC50 [1] turn out when `CCN(Cc1ccc(C(C)C)cc1)C(=O)c1ncn(-c2cc(Cl)c(O)c(Cl)c2)n1` [87i, 1-(3,5-dichloro-4-hydroxyphenyl)-N-ethyl-N-(4-isopropylbenzyl)-1H-1,2,4-triazole-3-carboxamide] was run?
Answer: The IC50 was 20.6 µM.

Question: What about the IC50 [2] of the same molecule?
Answer: Its IC50 is 1.23 µM.

Question: Which results are given for `CCN(Cc1ccc(C(C)(C)C)cc1)C(=O)c1ncn(-c2cc(Cl)c(O)c(Cl)c2)n1` [88i, N-(4-tert-butylbenzyl)-1-(3,5-dichloro-4-hydroxyphenyl)-N-ethyl-1H-1,2,4-triazole-3-carboxamide]?
Answer: IC50 [1]: 6.58 µM; IC50 [2]: 0.75 µM

Question: How did the IC50 [1] turn out when `CCN(Cc1cccc(OC(F)(F)F)c1)C(=O)c1ncn(-c2cc(Cl)c(O)c(Cl)c2)n1` [89i, 1-(3,5-dichloro-4-hydroxyphenyl)-N-ethyl-N-(3-(trifluoromethoxy)benzyl)-1H-1,2,4-triazole-3-carboxamide] was run?
Answer: Its IC50 is 24.6 µM.

Question: What about the IC50 [2] of the same molecule?
Answer: The IC50 was 3.34 µM.

Question: Which IC50 [1] does the source give for `CCN(Cc1cccc(C(F)(F)F)c1)C(=O)c1ncn(-c2cc(Cl)c(O)c(Cl)c2)n1` [90i, 1-(3,5-dichloro-4-hydroxyphenyl)-N-ethyl-N-(3-(trifluoromethyl)benzyl)-1H-1,2,4-triazole-3-carboxamide] here?
Answer: The IC50 was 15.9 µM.

Question: What about the IC50 [2] of the same molecule?
Answer: Its IC50 is 5.98 µM.

Question: Which IC50 [1] does the source give for `O=C(c1ncn(-c2cc(Cl)c(O)c(Cl)c2)n1)N(Cc1ccc(Oc2ccccc2)cc1)Cc1cccnc1` [91i, 1-(3,5-dichloro-4-hydroxyphenyl)-N-(4-phenoxybenzyl)-N-(pyridin-3-ylmethyl)-1H-1,2,4-triazole-3-carboxamide] here?
Answer: Its IC50 is 20.6 µM.

Question: And the IC50 [2]?
Answer: Its IC50 is 2.89 µM.

Question: `CC(C)c1ccc(CN(Cc2cccnc2)C(=O)c2ncn(-c3cc(Cl)c(O)c(Cl)c3)n2)cc1` [92i, 1-(3,5-dichloro-4-hydroxyphenyl)-N-(4-isopropylbenzyl)-N-(pyridin-3-ylmethyl)-1H-1,2,4-triazole-3-carboxamide] was tested. Which IC50 [1] did it give?
Answer: Its IC50 is 8.57 µM.

Question: What about the IC50 [2] of the same molecule?
Answer: The IC50 was 1.47 µM.

Question: What does the source list for `CC(C)(C)c1ccc(CN(Cc2cccnc2)C(=O)c2ncn(-c3cc(Cl)c(O)c(Cl)c3)n2)cc1` [93i, N-(4-tert-butylbenzyl)-1-(3,5-dichloro-4-hydroxyphenyl)-N-(pyridin-3-ylmethyl)-1H-1,2,4-triazole-3-carboxamide]?
Answer: IC50 [1]: 4.67 µM; IC50 [2]: 1.19 µM

Question: Which results are given for `O=C(c1ncn(-c2cc(Cl)c(O)c(Cl)c2)n1)N(Cc1cccnc1)Cc1cccc(C(F)(F)F)c1` [94i, 1-(3,5-dichloro-4-hydroxyphenyl)-N-(pyridin-3-ylmethyl)-N-(3-(trifluoromethyl)benzyl)-1H-1,2,4-triazole-3-carboxamide]?
Answer: IC50 [1]: 21.1 µM; IC50 [2]: 6.95 µM

Question: `CC(C)N(Cc1ccc(Oc2ccccc2)cc1)C(=O)c1ncn(-c2cc(Cl)c(O)c(Cl)c2)n1` [95i, 1-(3,5-dichloro-4-hydroxyphenyl)-N-isopropyl-N-(4-phenoxybenzyl)-1H-1,2,4-triazole-3-carboxamide] was tested. Which IC50 [1] did it give?
Answer: The IC50 was 18.9 µM.

Question: And the IC50 [2]?
Answer: Its IC50 is 2.63 µM.

Question: `CC(C)c1ccc(CN(C(=O)c2ncn(-c3cc(Cl)c(O)c(Cl)c3)n2)C(C)C)cc1` [96i, 1-(3,5-dichloro-4-hydroxyphenyl)-N-isopropyl-N-(4-isopropylbenzyl)-1H-1,2,4-triazole-3-carboxamide] was tested. Which IC50 [1] did it give?
Answer: Its IC50 is 22.1 µM.

Question: What about the IC50 [2] of the same molecule?
Answer: The IC50 was 2.53 µM.

Question: For `CC(C)N(Cc1ccc(C(C)(C)C)cc1)C(=O)c1ncn(-c2cc(Cl)c(O)c(Cl)c2)n1` [97i], which IC50 [1] is on record?
Answer: The IC50 was 35.5 µM.

Question: What about the IC50 [2] of the same molecule?
Answer: The IC50 was 1.23 µM.

Question: `CC(C)N(Cc1ccc(Cl)c(Cl)c1)C(=O)c1ncn(-c2cc(Cl)c(O)c(Cl)c2)n1` [98i, 1-(3,5-dichloro-4-hydroxyphenyl)-N-(3,4-dichlorobenzyl)-N-isopropyl-1H-1,2,4-triazole-3-carboxamide] was tested. Which IC50 [1] did it give?
Answer: The IC50 was 8.39 µM.

Question: What about the IC50 [2] of the same molecule?
Answer: The IC50 was 8.13 µM.

Question: How did the IC50 [1] turn out when `CC(C)N(Cc1cccc(OC(F)(F)F)c1)C(=O)c1ncn(-c2cc(Cl)c(O)c(Cl)c2)n1` [99i, 1-(3,5-dichloro-4-hydroxyphenyl)-N-isopropyl-N-(3-(trifluoromethoxy)benzyl)-1H-1,2,4-triazole-3-carboxamide] was run?
Answer: The IC50 was 12 µM.

Question: What about the IC50 [2] of the same molecule?
Answer: The IC50 was 7.93 µM.

Question: Which IC50 [1] does the source give for `C=CCN(Cc1ccc(Oc2ccccc2)cc1)C(=O)c1ncn(-c2cc(Cl)c(O)c(Cl)c2)n1` [100i, N-allyl-1-(3,5-dichloro-4-hydroxyphenyl)-N-(4-phenoxybenzyl)-1H-1,2,4-triazole-3-carboxamide] here?
Answer: The IC50 was 9.09 µM.

Question: And the IC50 [2]?
Answer: Its IC50 is 1.85 µM.

Question: Which results are given for `C=CCN(Cc1ccc(Cl)c(Cl)c1)C(=O)c1ncn(-c2cc(Cl)c(O)c(Cl)c2)n1` [102i, N-allyl-1-(3,5-dichloro-4-hydroxyphenyl)-N-(3,4-dichlorobenzyl)-1H-1,2,4-triazole-3-carboxamide]?
Answer: IC50 [1]: 2.69 µM; IC50 [2]: 1.85 µM
